Measurements from patent US20220378807A1, “DELIVERY OF A COOLING AGENT TO THE PHARYNGEAL-ESOPHAGEAL SURFACE” (priority 2019, published 2022).
≈ marks a conversion by molar mass, not a printed value. Entries after “also recorded” stand apart in the source; their conditions may differ. Where two headings read alike, the source gives them in different places. Values belong to the compound of their own block, whether it stands above or below them.

What was measured:
[1] = Water solubility of 1-dialkylphosphinoylalkanes; type: physicochemical; conditions: R1R2R3P=O, by R1,R2 and R3
[2] = target: T1, cloned hTRPM8 channel (human TRPM8 gene, expressed in CHO cells) (Homo sapiens, UniProt Q7Z2W7); experiment: TRPM8 agonist activity, Fluo-8 calcium FLIPR assay; type: cell-based; conditions: for Potency relative to menthol / EC50: p-menthane compounds, Table 8; for EC50: 95% limits printed in line below; for Relative Potency to L-menthol: from TRPM8 EC50, menthol = 1.0
T1 construct: host or cells: CHO cells
T1 sequence (Q7Z2W7 whole entry): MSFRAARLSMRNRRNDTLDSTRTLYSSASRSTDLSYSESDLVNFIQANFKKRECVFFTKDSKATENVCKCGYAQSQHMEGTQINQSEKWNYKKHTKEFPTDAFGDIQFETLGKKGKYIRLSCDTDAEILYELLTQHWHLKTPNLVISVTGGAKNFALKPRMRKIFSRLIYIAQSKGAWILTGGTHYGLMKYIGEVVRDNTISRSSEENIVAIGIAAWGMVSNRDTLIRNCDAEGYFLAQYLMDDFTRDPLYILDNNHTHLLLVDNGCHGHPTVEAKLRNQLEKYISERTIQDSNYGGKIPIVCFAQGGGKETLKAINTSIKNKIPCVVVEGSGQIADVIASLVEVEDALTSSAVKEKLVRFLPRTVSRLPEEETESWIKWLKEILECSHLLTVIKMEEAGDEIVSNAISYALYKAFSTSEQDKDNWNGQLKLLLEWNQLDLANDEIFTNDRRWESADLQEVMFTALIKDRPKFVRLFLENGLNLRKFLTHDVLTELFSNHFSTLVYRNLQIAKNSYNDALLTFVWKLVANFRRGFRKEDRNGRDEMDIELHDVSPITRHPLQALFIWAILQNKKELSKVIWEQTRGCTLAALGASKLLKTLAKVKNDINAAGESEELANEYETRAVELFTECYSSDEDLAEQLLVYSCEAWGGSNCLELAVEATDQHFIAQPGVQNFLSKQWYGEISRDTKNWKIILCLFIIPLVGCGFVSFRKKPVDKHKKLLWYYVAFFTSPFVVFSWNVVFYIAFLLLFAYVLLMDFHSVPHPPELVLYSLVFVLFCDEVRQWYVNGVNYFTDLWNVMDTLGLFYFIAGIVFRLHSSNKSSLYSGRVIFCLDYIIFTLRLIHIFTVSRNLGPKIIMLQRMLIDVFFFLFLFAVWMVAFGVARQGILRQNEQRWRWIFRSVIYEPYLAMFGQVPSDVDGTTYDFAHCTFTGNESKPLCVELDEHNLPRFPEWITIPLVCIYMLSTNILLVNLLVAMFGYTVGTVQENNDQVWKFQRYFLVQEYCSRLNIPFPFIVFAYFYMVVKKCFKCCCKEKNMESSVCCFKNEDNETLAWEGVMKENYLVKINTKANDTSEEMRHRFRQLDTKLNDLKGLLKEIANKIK
Experimental: In the first set of data, the potency and in vitro effects of test compounds were evaluated on cloned hTRPM8 channel (encoded by the human TRPM8 gene, expressed in CHO cells) using a Fluo-8 calcium kit and a Fluorescence Imaging Plate Reader (FLIPR^TETRATM) instrument. […] Test solutions were in HEPES-buffered saline, 384-well plates, and placed into the FLIPR instrument (Molecular Devices Corporation, Union City, Calif., USA). […] The test cells were Chinese Hamster Ovary (CHO) cells stably transfected with human TRPM8 cDNAs. The concentration-response data were analyzed via FLIPR Control software and fitted to a Hill equation for the EC50.

[3] = tested on: throat (Adam's apple, jugular notch, upper chest); type: in vivo, human; set-up: key to Jugular Notch / Sternum: cooling rated on a 0-3 scale; Onset: unit not given here; conditions: for Duraton: duration of cooling after swallowing Shaped-Gel; for Discomfort: in vivo; for Onset: onset of cooling after swallowing Shaped-Gel, no unit in head (min); for Jugular Notch: cooling felt at jugular notch
Experimental: Shaped-Gel having total weight of 0.4 to 1.2 g containing 0.4 to 1.5% by weight (5 mg/g to 15 mg/g) are prepared and tested. The following examples illustrate the invention, but are not intended to limit the scope of the present invention. A Shaped-Gel in accordance with the present invention was prepared with the following composition.
Shaped-Gels were prepared by these procedures. First step, the cooling agent was accurately weighed and place in a 60 mL plastic container. Then glycerol, water, and gelatin was added to the container and centrifuged for 2 min in a SpeedMixer (FlackTek, Inc.) at 3000 rpm. Then gelatin powder was added and the mixture centrifuged for 3 min. The container was warmed by placing it in a beaker containing hot water (80-85° C.) for 15 min. The container was then centrifuged for 5 min. The liquid mix was cooled and dispensed onto silicon molds with a plastic dropper, and placed in a refrigerator. After one hour, the gels were solidified, removed from the mold with a plastic tweezer, weighed and placed on wax paper and later stored in blister pockets. […] In preliminary studies, the shape of the Shaped-Gel was varied. Square, rectangular, spherical, hemispherical, toroidal, and pentagram Shaped-Gels were prepared at sizes ranging from 0.4 to 1.2 g. A flat shape wherein the shortest diameter was about 20% of the longest axis was preferred because it could be placed flat on the back of the tongue. A Shaped-Gel shaped as a rectangular prism of 2.75 mm×15 mm×15 mm=0.63 cm3 and weighing ˜0.6 g was acceptable to subjects. A toroid, much like a “LiveSaver” mint was also acceptable if the size was ˜0.8 g. Test Panel: The volunteers for testing the Shaped-Gel were six subjects, four males and two females, aged 50 to 76 years. Each Shaped-Gel was tested for at least four trials in at least three subjects. The concentration of the cooling agent in the Shaped-Gel varied from 0.5 to 2%. The duration of observation for each trial usually lasted for not more than 1.5 hours. Subjects were instructed to swallow the Shaped-Gel with a sip of […] water. Cooling sensations were rated on a scale of 0, 1, 2, 3, at intervals of 3 min, 5 min, and then at 10 min intervals. If a cooling value exceeded 2, the subject noted whether the cooling was felt at the level of the Adam's apple, jugular notch or upper chest. Ancillary effects were also recorded.

[4] = tested on: Eyelids Surfaces; experiment: Cooling on eyelid surfaces; type: in vivo; conditions: p-menthane compounds, Table 8
[5] = tested on: Philtrum Skin; experiment: Cooling on philtrum skin; type: in vivo; conditions: p-menthane compounds, Table 8
[6] = tested on: Oral Cavity and Pharynx; experiment: Study 2: sensory qualities of compounds applied to oral cavity and pharynx; type: in vivo, human; conditions: for sensations produced (cooling intensity, cold discomfort, adverse taste): ~0.8 mL per dose to base of tongue, four volunteers
Experimental: Tests were on four volunteers, with 3 to 5 trials per substance. Compounds were prepared in cherry-flavored Shaped-Gel at 5 mg/mL and administered ˜0.8 mL per dose with a 2 mL plastic vial to the base of the tongue. The subjects asked to rate the sensations for cooling intensity, cold discomfort and adverse taste.

[7] = target: T2, TRPA1 channels (human TRPA1 gene expressed in CHO cells) (Homo sapiens, UniProt O75762); conditions: data in Yang et al. BMC Ophthalmology 17:101 and Wei US 9,956,232; cited from earlier work
T2 construct: expressed in transfected cells; host or cells: CHO cells
T2 sequence (O75762 whole entry): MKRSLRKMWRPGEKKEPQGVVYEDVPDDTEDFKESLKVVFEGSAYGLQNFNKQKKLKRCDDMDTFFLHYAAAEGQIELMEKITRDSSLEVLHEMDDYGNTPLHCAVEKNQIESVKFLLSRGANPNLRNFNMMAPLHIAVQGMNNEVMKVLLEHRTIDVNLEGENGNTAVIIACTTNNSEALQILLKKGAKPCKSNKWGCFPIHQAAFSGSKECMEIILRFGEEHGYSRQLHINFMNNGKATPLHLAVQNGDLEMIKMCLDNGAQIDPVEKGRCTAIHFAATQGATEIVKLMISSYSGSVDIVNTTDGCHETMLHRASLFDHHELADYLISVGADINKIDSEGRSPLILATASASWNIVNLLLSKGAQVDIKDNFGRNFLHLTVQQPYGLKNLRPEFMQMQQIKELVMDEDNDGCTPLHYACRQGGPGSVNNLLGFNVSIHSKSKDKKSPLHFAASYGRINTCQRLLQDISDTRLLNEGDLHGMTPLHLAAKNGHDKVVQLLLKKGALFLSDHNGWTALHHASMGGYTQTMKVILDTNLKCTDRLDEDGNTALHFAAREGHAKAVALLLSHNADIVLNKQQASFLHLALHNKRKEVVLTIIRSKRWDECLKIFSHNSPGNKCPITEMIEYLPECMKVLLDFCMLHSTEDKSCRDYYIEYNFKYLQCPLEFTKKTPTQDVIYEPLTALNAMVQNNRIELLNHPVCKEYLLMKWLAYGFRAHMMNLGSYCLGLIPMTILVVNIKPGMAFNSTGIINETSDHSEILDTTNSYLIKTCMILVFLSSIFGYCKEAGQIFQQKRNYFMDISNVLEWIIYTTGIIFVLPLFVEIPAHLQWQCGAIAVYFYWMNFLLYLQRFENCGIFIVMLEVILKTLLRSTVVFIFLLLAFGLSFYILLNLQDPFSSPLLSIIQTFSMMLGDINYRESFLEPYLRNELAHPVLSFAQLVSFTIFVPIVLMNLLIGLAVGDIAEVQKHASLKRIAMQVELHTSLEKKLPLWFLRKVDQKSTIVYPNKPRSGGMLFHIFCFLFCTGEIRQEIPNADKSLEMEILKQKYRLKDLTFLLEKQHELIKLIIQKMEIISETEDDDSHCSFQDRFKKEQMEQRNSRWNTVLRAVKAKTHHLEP

[8] = target: T3, TRPV1 channels (human TRPV1 gene expressed in HEK293 cells) (Homo sapiens, UniProt Q8NER1); conditions: data in Yang et al. BMC Ophthalmology 17:101 and Wei US 9,956,232; cited from earlier work
T3 construct: expressed in transfected cells; host or cells: HEK293 cells
T3 sequence (Q8NER1 whole entry): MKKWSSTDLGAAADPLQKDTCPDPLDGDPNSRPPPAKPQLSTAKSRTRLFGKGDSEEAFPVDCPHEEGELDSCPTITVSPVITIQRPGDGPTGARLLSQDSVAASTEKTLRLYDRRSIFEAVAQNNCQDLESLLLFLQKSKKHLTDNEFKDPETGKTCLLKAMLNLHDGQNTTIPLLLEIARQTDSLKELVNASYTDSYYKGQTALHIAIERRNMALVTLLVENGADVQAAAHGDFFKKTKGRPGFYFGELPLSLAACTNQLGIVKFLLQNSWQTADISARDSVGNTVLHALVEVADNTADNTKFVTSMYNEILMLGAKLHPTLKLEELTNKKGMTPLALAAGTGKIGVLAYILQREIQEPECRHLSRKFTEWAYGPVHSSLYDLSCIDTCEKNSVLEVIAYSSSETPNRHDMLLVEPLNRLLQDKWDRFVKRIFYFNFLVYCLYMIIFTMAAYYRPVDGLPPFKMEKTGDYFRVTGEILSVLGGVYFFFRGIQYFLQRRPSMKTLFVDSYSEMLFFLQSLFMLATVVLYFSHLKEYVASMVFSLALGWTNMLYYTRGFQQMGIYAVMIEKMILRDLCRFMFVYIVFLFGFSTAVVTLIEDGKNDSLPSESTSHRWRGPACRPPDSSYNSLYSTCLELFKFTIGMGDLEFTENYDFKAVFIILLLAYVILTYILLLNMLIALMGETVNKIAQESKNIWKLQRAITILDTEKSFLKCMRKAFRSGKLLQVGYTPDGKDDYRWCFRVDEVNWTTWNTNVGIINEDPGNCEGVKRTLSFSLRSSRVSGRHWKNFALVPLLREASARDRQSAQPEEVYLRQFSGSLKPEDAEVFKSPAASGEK

[9] = tested on: Oral Cavity and Pharynx; experiment: Study 2: sensory qualities of compounds applied to oral cavity and pharynx; type: in vivo, human

Relative Potency to L-menthol [2]: 0.3
SMILES: CCCCP(=O)(C(C)CC)C(C)CC (stereo not drawn) [DAPA-2-4, 1-Di(sec-butyl)-phosphinoyl-butane]

Relative Potency to L-menthol [2]: 2.2
SMILES: CCCCCP(=O)(C(C)CC)C(C)CC (stereo not drawn) [DAPA-2-5, 1-di-sec-butyl-phosphorylpentane]

Relative Potency to L-menthol [2]: 4.7
Discomfort [3]: yes
SMILES: CCCCCCP(=O)(C(C)CC)C(C)CC (stereo not drawn) [DAPA-2-6, 1-Di(sec-butyl)-phosphinoyl-hexane]
Adam's Apple ([3]; cooling felt at Adam's apple, Shaped-Gel): +++ icy
Jugular Notch ([3]; Shaped-Gel): ++ icy
Duraton [3]: 30 min
Onset [3]: <3
unpleasant taste, description ([6]; 5 mg/mL): “metallic”, “organic solvent-like”, and “harsh”
sensations produced (cooling intensity, cold discomfort, adverse taste) ([6]; 5 mg/mL): cold, icy cold, and adverse tastes

Relative Potency to L-menthol [2]: 2.9
SMILES: CCCCCCCCP(=O)(C(C)CC)C(C)CC (stereo not drawn) [DAPA-2-8, 1-Di(sec-butyl)-phosphinoyl-octane]
unpleasant taste, description ([6]; 5 mg/mL): “metallic”, “organic solvent-like”, and “harsh”

TRPM8 potency / bioactivity in words [2]: significant loss of bioactivity
Relative Potency to L-menthol [2]: 0.2
SMILES: CCCCCP(=O)(CC(C)C)CC(C)C [DAPA-3-1, 1-di(iso-butyl) phosphinoyl-pentane]

Relative Potency to L-menthol [2]: 5.4
strong metallic taste ([6]; in vivo): present
SMILES: CCCCCCCCP(=O)(C(C)C)C(C)C [DIPA-1-8, 1-Di(isopropyl)-phosphinoyl-octane]
selectivity: TRPM8 versus TRPA1 [7]: Selectivity is also seen
unpleasant taste, description ([6]; 5 mg/mL): “metallic”, “organic solvent-like”, and “harsh”
sensations produced (cooling intensity, cold discomfort, adverse taste) ([6]; 5 mg/mL): cold, icy cold, and adverse tastes
selectivity: TRPM8 versus TRPV1 [8]: Selectivity is also seen

Relative Potency to L-menthol [2]: 4.0
Discomfort ([3]; both, human): 0
strong metallic taste ([6]; in vivo): does not have a strong metallic taste
SMILES: CCCCCCCCCP(=O)(C(C)C)C(C)C [DIPA-1-9, 1-Di(isopropyl)-phosphinoyl-nonane]
selectivity: TRPM8 versus TRPA1 [7]: selective for TRPM8 and not TRPVI and TRPA1
onset of sensation of coolness in the throat ([3]; Shaped-Gel applied to base of tongue): 3 min
Duraton [3]: ~60 min
Onset [3]: <3
icy cold, pain or discomfort at increased concentration ([9]; 5, 8 to 15 mg/mL, 0.8 mL per dose): no pain or discomfort; also recorded: did not produce icy cold or pain
sensation in the oropharynx and esophagus ([9]; optimized concentrations of 5 to 10 mg/mL): perfect cool in the oropharynx and esophagus but without cold discomfort
sensations produced (cooling intensity, cold discomfort, adverse taste) ([6]; 5 mg/mL): coolness and cold which was well-tolerated
general sense of refreshment in the throat, persistence ([6]; in vivo): ≥ 3 h
selectivity: TRPM8 versus TRPV1 [8]: selective for TRPM8 and not TRPVI and TRPA1

The next lines start with the compound.

SMILES: CCCCCCC[P@@](=O)(C(C)C)C(C)CC (stereo partly drawn) [3,4-7, 1-(Isopropyl-sec-butyl)-phosphinoyl-heptane]
solubility [1]: 20 mg/mL (≈ 81.2 mM)

SMILES: CC(C)OC(=O)CNC(=O)[C@@H]1C[C@H](C)CC[C@H]1C(C)C [Ax-8]
Potency relative to menthol [2]: 7.6
EC50 [2]: 500 nM
Duraton [3]: 35 min
Discomfort [3]: yes
Onset [3]: 5
Eyelids Surfaces [4]: 300 min
Philtrum Skin [5]: 27 min

SMILES: CCOC(=O)C(C)NC(=O)[C@@H]1C[C@H](C)CC[C@H]1C(C)C (stereo partly drawn) [D-Ala-OEt]
Potency relative to menthol [2]: 14.0
Eyelids Surfaces [4]: 180 min
Philtrum Skin [5]: 103 min

SMILES: CC(C)OC(=O)C(C)NC(=O)[C@@H]1C[C@H](C)CC[C@H]1C(C)C (stereo partly drawn) [D-Ala-OiPr]
Potency relative to menthol [2]: 14.6
Eyelids Surfaces [4]: 360 min
Philtrum Skin [5]: 34 min

SMILES: CCCCCCCP(=O)(C(C)CC)C(C)CC (stereo not drawn) [DAPA-2-7, 1-Di(sec-butyl)-phosphinoyl-heptane]
Relative Potency to L-menthol [2]: 3.4
unpleasant taste, description ([6]; 5 mg/mL): “metallic”, “organic solvent-like”, and “harsh”
sensations produced (cooling intensity, cold discomfort, adverse taste) ([6]; 5 mg/mL): cold, icy cold, and adverse tastes

SMILES: CCC(C)P(=O)(CCC(C)C)C(C)CC (stereo not drawn) [DAPA-3-2, 1-Di(sec-butyl)-phosphinoyl-3-methyl-butane]
TRPM8 potency / bioactivity in words [2]: significant loss of bioactivity
Relative Potency to L-menthol [2]: 0.9

SMILES: CCCCCP(=O)(C(C)C)C(C)C [DIPA-1-5, 1-Di(isopropyl)-phosphinoyl-pentane]
Relative Potency to L-menthol [2]: 0.7

SMILES: CCCCCCP(=O)(C(C)C)C(C)C [DIPA-1-6, 1-Di(isopropyl)-phosphinoyl-hexane]
Relative Potency to L-menthol [2]: 1.6

SMILES: CCCCCCCP(=O)(C(C)C)C(C)C [DIPA-1-7, 1-Di(isopropyl)-phosphinoyl-heptane]
selectivity: TRPM8 versus TRPA1 [7]: Selectivity is also seen
Relative Potency to L-menthol [2]: 5.4
cold discomfort ([6]; 5 mg/mL): icy cold; also recorded: icy pain in the back of the throat
unpleasant taste, description ([6]; 5 mg/mL): “metallic”, “organic solvent-like”, and “harsh”
sensations produced (cooling intensity, cold discomfort, adverse taste) ([6]; 5 mg/mL): cold, icy cold, and adverse tastes
strong metallic taste ([6]; in vivo): present
selectivity: TRPM8 versus TRPV1 [8]: Selectivity is also seen

SMILES: CCOC(=O)CNC(=O)[C@@H]1C[C@H](C)CC[C@H]1C(C)C [WS-5]
Potency relative to menthol [2]: 10.6
EC50 [2]: 360 nM
Discomfort ([3]; both, human): 0
Duraton [3]: 25 min
Onset [3]: ~3
Eyelids Surfaces [4]: 15 min
Philtrum Skin [5]: 24 min

SMILES: COc1ccc(NC(=O)[C@@H]2C[C@H](C)CC[C@H]2C(C)C)cc1 [WS-12]
Jugular Notch ([3]; Shaped-Gel): 0
Sternum ([3]; cooling felt at sternum, Shaped-Gel): 0
Duraton [3]: 20 min
Discomfort [3]: 0
Onset [3]: 5

SMILES: CC1CCC(C(C)C)C(C(=O)OCC(O)CO)C1 (stereo not drawn) [WS-30]
Duraton [3]: 25 min
Discomfort [3]: 0
Onset [3]: ~3
